Laboratory results reported in US20150314021A1, “STERILIZATION METHOD COMPRISING STERILIZATION FLUID AND ULTRASONICALLY GERERATED CAVITATION MICROBUBBLES” (DEVIS TECHNOLOGIES INC., priority 2012, published 2015).
Like-named read-outs stand apart in the source and are kept apart here.

System: Bacillus atrophaeus and Bacillus stearothermophilus
Settings: H2O2 alone (no ultrasound)

OO [Hydrogen Peroxide, hydrogen peroxide]
reduction in cell count (1 min exposure): 50.02% | reduction in cell count (5 min exposure): 50.12%
